The text below walks through data of ChEMBL document CHEMBL1201862, “PubChem BioAssay data set” (2004).

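Five concentrations, 48 hours, 96-well plates. The concentration for 50% growth inhibition is given as GI50.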 Activity calls are given as the source filed them. Rule as the data show it: active = GI50 up to about 1.1 µM and inactive = higher. A value given as a limit tells only on which side of the number the result lay.

Among the test systems are HOP-92; HCC 2998; IGROV-1; SK-MEL-28; SK-MEL-2; TK-10; UACC-62; RPMI-8226; SN12C; UO-31; SF-268; SW-620; NCI-H23; COLO 205; UACC-257; ACHN; SK-OV-3; SF-295; SNB-75; RXF 393.
Holding throughout (test): DTP human tumour cell line panel, 48 h

On to `O[C@@]12Cc3c([nH]c4ccccc34)[C@@H]3Oc4cccc5c4[C@@]31CCN(CC1CC1)[C@@H]2C5`, for which the GI50 (in general, the concentration giving 50% growth inhibition) in the experiment with HOP-92 was 12.4 µM (inactive); in the experiment on HCC 2998, 17.7 µM (inactive); in the experiment on IGROV-1 it was 24.9 µM (inactive); in the experiment with SK-MEL-28 it was 12.7 µM (inactive); in the experiment on SK-MEL-2 it was 26.5 µM (inactive); in the experiment with TK-10, 19.2 µM (inactive). For the same molecule, the GI50 in the experiment with UACC-62 was 17.2 µM (inactive); in the experiment on RPMI-8226, 19.4 µM (inactive); in the experiment with SN12C, 21.7 µM (inactive); in the experiment on UO-31, 18.9 µM (inactive); in the experiment with SF-268, 19.5 µM (inactive); with SW-620, 11.4 µM (inactive). In addition, the GI50 was 30.7 µM (inactive) in the experiment with NCI-H23, 31.4 µM (inactive) with COLO 205, 24.9 µM (inactive) with UACC-257 and 20.4 µM (inactive) in the experiment with ACHN.

In the case of `CCSc1nc(N/N=C/c2cccs2)c2cnn(CO)c2n1`, the GI50 is 16.9 µM (inactive) with HOP-92; 2.61 µM (inactive) with IGROV-1; 14.9 µM (inactive) in the experiment on SK-MEL-28; 14.6 µM (inactive) in the experiment with SK-OV-3; 8.13 µM (inactive) in the experiment on SF-295; 10.6 µM (inactive) with SK-MEL-2. Moreover, the GI50 is 6.14 µM (inactive) in the experiment on TK-10; 10.4 µM (inactive) in the experiment with UACC-62; 6.44 µM (inactive) with SN12C; 14.2 µM (inactive) in the experiment on SNB-75; 2.81 µM (inactive) in the experiment with UO-31; 6.22 µM (inactive) in the experiment with SF-268. The GI50 is 4.42 µM (inactive) in the experiment with SW-620; 7.05 µM (inactive) with NCI-H23; 4.73 µM (inactive) in the experiment on COLO 205; 11.6 µM (inactive) in the experiment on UACC-257; 6.07 µM (inactive) in the experiment on ACHN; 3.66 µM (inactive) in the experiment on RXF 393.

With `CCCCCCCCCCCCCCCCCc1cc(Cl)nc(Cl)n1`, the GI50 with HCC 2998, in the experiment on IGROV-1, with SK-MEL-28, with SK-OV-3, with SF-295 and in the experiment with SK-MEL-2 was > 100 µM (inactive) each time. Also, the GI50 in the experiment on TK-10 was > 100 µM (inactive); in the experiment with UACC-62, > 100 µM (inactive); in the experiment on RPMI-8226 it was 43.7 µM (inactive); with SN12C, > 100 µM (inactive); in the experiment on SNB-75, > 100 µM (inactive); in the experiment on UO-31, > 100 µM (inactive). The GI50 in the experiment with SF-268, in the experiment with SW-620, in the experiment on NCI-H23, in the experiment with UACC-257, in the experiment with ACHN and in the experiment with RXF 393 was > 100 µM (inactive) in each case.

For the molecule `CC1(C)OC2OC(COC(=O)c3ccc(C#N)cc3)C3OC(C)(C)OC3C2O1` (configuration not stated), the GI50 with HCC 2998, in the experiment with IGROV-1, in the experiment on SK-MEL-28, in the experiment on SK-OV-3, with SF-295 and in the experiment with SK-MEL-2 was > 75 µM (inactive) throughout. Moreover, the GI50 in the experiment on TK-10 was > 75 µM (inactive); in the experiment on UACC-62, > 75 µM (inactive); in the experiment on RPMI-8226, 57.8 µM (inactive); in the experiment with SN12C, > 75 µM (inactive); in the experiment with SNB-75, > 75 µM (inactive); in the experiment on UO-31, 46.9 µM (inactive). Moreover, the GI50 with SF-268, in the experiment with SW-620, with NCI-H23, in the experiment on COLO 205, in the experiment on UACC-257 and in the experiment with ACHN was > 75 µM (inactive) in each case. For the same molecule, the GI50 with RXF 393 is > 75 µM (inactive).

For `Nc1ccc(Sc2nnc(N)s2)cc1`, the GI50 in the experiment with HCC 2998, in the experiment with IGROV-1, in the experiment with SK-MEL-28, with SK-OV-3, in the experiment with SF-295 and in the experiment with TK-10 was > 100 µM (inactive) throughout. Moreover, the GI50 in the experiment with RPMI-8226, with SN12C, in the experiment with SNB-75, in the experiment on UO-31, with SF-268 and in the experiment with SW-620 was > 100 µM (inactive) throughout. Further, the GI50 in the experiment on COLO 205, in the experiment on UACC-257 and in the experiment with ACHN was > 100 µM (inactive) in each case.

For `CCN(CC)/[N+]([O-])=N/OC`, the GI50 in the experiment on HOP-92, in the experiment on HCC 2998, with IGROV-1, with SK-MEL-28, in the experiment on SK-OV-3 and in the experiment with SF-295 was > 100 µM (inactive) each time. Besides, the GI50 in the experiment on SK-MEL-2, with TK-10, in the experiment with UACC-62, in the experiment with SN12C, with UO-31 and in the experiment with SF-268 was > 100 µM (inactive) in each case. Further, the GI50 in the experiment on SW-620, in the experiment with NCI-H23, with UACC-257, in the experiment with ACHN and in the experiment on RXF 393 was > 100 µM (inactive) each time.

In the case of `CNC1=C(C)C(=O)C2=C(C1=O)C(COC(N)=O)C1(OC)C3NC3CN21` (configuration not stated), the GI50 is > 10 µM (inactive) in the experiment on HOP-92; 0.313 µM (active) in the experiment with HCC 2998; 3.53 µM (inactive) in the experiment with IGROV-1; 1.29 µM (inactive) in the experiment on SK-MEL-28; 1.27 µM (inactive) in the experiment with SK-OV-3; 0.0853 µM (active) with SF-295. Moreover, the GI50 in the experiment with SK-MEL-2 was 1.15 µM (inactive); with TK-10, 3.1 µM (inactive); with UACC-62, 0.221 µM (active); with RPMI-8226, 3.13 µM (inactive); in the experiment with SNB-75, 0.141 µM (active); with UO-31 it was 2.19 µM (inactive). The 50% growth inhibitory concentration (GI50) was 0.783 µM (active) with SF-268; 0.385 µM (active) with SW-620; 0.105 µM (active) in the experiment with NCI-H23; 0.187 µM (active) in the experiment with COLO 205; 0.951 µM (active) in the experiment on UACC-257; 0.16 µM (active) in the experiment on ACHN.

For the molecule `O=C1Sc2ccccc2/C1=N/Nc1ccccc1[N+](=O)[O-]`, the GI50 in the experiment with HOP-92 was > 100 µM (inactive); in the experiment with HCC 2998, > 100 µM (inactive); with IGROV-1, > 100 µM (inactive); with SK-MEL-28, > 100 µM (inactive); in the experiment on SK-OV-3, 86.9 µM (inactive); in the experiment on SF-295 it was > 100 µM (inactive). Also, the GI50 in the experiment on SK-MEL-2 is > 100 µM (inactive); in the experiment with TK-10 it was > 100 µM (inactive); in the experiment with UACC-62, > 100 µM (inactive); with RPMI-8226, > 100 µM (inactive); in the experiment with SNB-75, 0.281 µM (active); in the experiment with UO-31 it was > 100 µM (inactive). For the same molecule, the GI50 in the experiment with SF-268 was 36.6 µM (inactive); in the experiment on SW-620 it was > 100 µM (inactive); with NCI-H23 it was > 100 µM (inactive); in the experiment on COLO 205, > 100 µM (inactive); in the experiment on UACC-257, > 100 µM (inactive); in the experiment on ACHN, 93.1 µM (inactive).

Regarding `O=C1CNc2cc(N3CCCCC3)ccc2N1`, the GI50 in the experiment with HOP-92 is > 100 µM (inactive); in the experiment on HCC 2998, > 100 µM (inactive); in the experiment on IGROV-1, 13.9 µM (inactive); with SK-MEL-28, > 100 µM (inactive); with SK-OV-3 it was > 100 µM (inactive); in the experiment on SF-295 it was > 100 µM (inactive). Besides, the GI50 in the experiment with SK-MEL-2 was > 100 µM (inactive); in the experiment on TK-10, > 100 µM (inactive); in the experiment on UACC-62, 25.4 µM (inactive); in the experiment with RPMI-8226 it was > 100 µM (inactive); in the experiment on SN12C, > 100 µM (inactive); with SNB-75, 66.2 µM (inactive). The GI50 with UO-31, in the experiment on SW-620, with NCI-H23, with UACC-257 and in the experiment with ACHN was > 100 µM (inactive) throughout.

On to `COc1cc(O)cc(/C=C/c2ccc(O)cc2)c1`, for which the GI50 with HOP-92 is 21.6 µM (inactive); in the experiment with IGROV-1, 53.3 µM (inactive); in the experiment with SK-MEL-28, > 100 µM (inactive); in the experiment with SK-OV-3, > 100 µM (inactive); in the experiment with SF-295, 25.7 µM (inactive); in the experiment with SK-MEL-2, 52.7 µM (inactive). For the same molecule, the GI50 was 29.4 µM (inactive) in the experiment on TK-10; 20.7 µM (inactive) with UACC-62; 4.07 µM (inactive) with RPMI-8226; 27.5 µM (inactive) with SN12C; 90.4 µM (inactive) with SNB-75; 39.1 µM (inactive) with UO-31. Further, the GI50 in the experiment on SF-268 is 49.1 µM (inactive); with SW-620, 48.8 µM (inactive); in the experiment with NCI-H23, 26.7 µM (inactive); in the experiment on COLO 205, > 100 µM (inactive); with UACC-257, 40.8 µM (inactive); in the experiment with ACHN, 6.31 µM (inactive). In the experiment with RXF 393, the GI50 is 72.8 µM (inactive).

Take `C=C(C)C(=O)O[C@H]1CC2=C[C@@H](C[C@@]3(C)O[C@@H]3[C@H]3OC(=O)C(=C)[C@@H]31)OC2=O` [ELEPHANTOPIN]: the GI50 in the experiment with HOP-92 is 1.13 µM (inactive); in the experiment on HCC 2998, 5.11 µM (inactive); in the experiment on IGROV-1 it was 4.65 µM (inactive); in the experiment on SK-MEL-28, 1.71 µM (inactive); in the experiment on SK-OV-3 it was 11.5 µM (inactive); with SF-295, 5.57 µM (inactive). For the same molecule, the GI50 in the experiment with SK-MEL-2 was 4.34 µM (inactive); in the experiment on UACC-62, 3.5 µM (inactive); in the experiment with SN12C, 4.03 µM (inactive); in the experiment with SNB-75, 7.98 µM (inactive); in the experiment with UO-31 it was 6.07 µM (inactive); in the experiment on SF-268, 0.818 µM (active). Further, the GI50 is 0.695 µM (active) in the experiment on SW-620; 1.87 µM (inactive) with NCI-H23; 0.885 µM (active) in the experiment on COLO 205; 1.85 µM (inactive) with UACC-257; 0.369 µM (active) with RXF 393.
